# Laboratory results taken from patent publication US20040053885A1, “Use of hyaluronic acid derivatives for the prevention of inflammatory arthritis” (priority 2000, published 2004).
# Assays:
# [1] = system: antigen-induced arthritis (knee joint); assay: Antigen-induced arthritis of rats: lateral joint diameter of the right knee joint after intraarticular injection; assay type: in vivo, rat (female Wistar); design: Joint diameter (right), Day 0: unit not given here; settings: for Joint diameter (right), Day 0: day 0, joint diameter before induction of arthritis (baseline); for Joint diameter (right), day 1, difference with respect to day 0 / Joint diameter (right), measured value on day 1: day 1 after induction; for Increase of joint diameter (right) from day 0 to day 1: day 1, increase after induction, before treatment takes effect
# Procedure: The animal model employed, antigen-induced arthritis of rats, is a well established animal model which reflects the mechanisms of rheumatoid arthritis (RA) very well. […] Female Wistar rats are employed for this experiment. At an interval of one week, the animals are subcutaneously preimmunized with 0.1 mg of methylalbumin (mBSA) in Freund's complete adjuvant. Two weeks after the second immunization, 0.1 mg of mBSA is injected intraarticularly into the […] knee joint. This injection induces arthritis, which persists for weeks after an acute phase. One day after the induction of the arthritis, the treatment is begun with sulfated hyaluronic acid solution or with high molecular weight hyaluronic acid (MW=1,800 kD), which are injected intraarticularly into the knee joint. The immunization of the animals was effected at an interval of 7 days. In the first immunization, a total of four subcutaneous injections of 0.25 ml each (corresponding to 0.1 mg of methylalbumin in Freund's complete adjuvant) were effected on both sides of the vertebral column at the level of the shoulder blade and above the hip (each at about 1.5 cm distance from the spines of the vertebrae). In the 2nd immunization, 3 depots of 0.3 ml of solution each were introduced; one exactly between the two shoulder blades and two at the level of the abdomen on both sides paravertebrally. The induction of arthritis was effected two weeks after the 2nd immunization by […] injection of 0.05 ml each of a 10 mg/ml solution of mBSA in physiological saline into the respective right knee joint. On the day after induction of arthritis, 0.05 ml each of a formulation containing sulfated HA was injected into the right knee joint of the 20 animals of the experimental group (use of an insulin syringe, thin cannula, 0.35×40 mm). Thereafter, injection was effected once a week (long-term group). The lateral joint diameter of all animals was measured by means of a distance meter (Matatuyo) prior to and 1, 4 and 8 days after the induction of arthritis and then every week until the experiment was completed. The animals were also weighed each time. On the 7th day, 10 animals of the experimental group and 10 animals of the control group were killed. The animals were put down by ether anesthesia, and the sacrifice of the remaining animals was effected 1 week after the last injection of a formulation containing sulfated HA into the right knee joint.
# [2] = system: antigen-induced arthritis (knee joint); assay: as above; assay type: in vivo, rat (female Wistar); settings: short-term experiment, 0.05 ml intraarticular on day 1
# [3] = long-term experiment, intraarticular injection day 1, then once a week
# [4] = short-term experiment, 0.05 ml intraarticular on day 1
Substance,"Joint diameter (right), Day 0 ([1]; long-term experiment)","Joint diameter (right), day 1, difference with respect to day 0 ([1]; long-term experiment)","Joint diameter (right), measured value on day 1 ([1]; long-term experiment)","Decrease or increase of joint diameter (right) after the injection on day 1, Day 4 [1, 3]","Decrease or increase of joint diameter (right) after the injection on day 1, Day 8 [1, 3]","Decrease or increase of joint diameter (right) after the injection on day 1, Day 15 [1, 3]","Decrease or increase of joint diameter (right) after the injection on day 1, Day 22 [1, 3]","Decrease or increase of joint diameter (right) after the injection on day 1, Day 29 [1, 3]","Decrease or increase of joint diameter (right) after the injection on day 1, Day 4 [1, 4]","Joint diameter (right), Day 0 ([1]; short-term experiment)",Increase of joint diameter (right) from day 0 to day 1 ([1]; short-term experiment),"Decrease or increase of joint diameter (right) after the injection on day 1, Day 8 [2]","Joint diameters (as a measure of the inflammatory swelling), result in words ([1]; long-term experiment over 3 weeks)"
"hyaluronic acid [HA, reference compound]",926.0,+206,1132.9,+27,−97,−140,−144,−134,+18,913.2,+206,−45,
sulfated hyaluronic acid [Sulfated HA],927.6,+226,1153.9,−4,−127,−203,−212,−231,+20,867.4,+228,−118,significant decrease of the joint diameters
